Measured values from US11998008B2, “Pesticides and methods of controlling pests” (The State of Israel, Ministry of Agriculture & Rural …, priority 2017, dated 2024).
Entries after “also recorded” stand apart in the source; their conditions may differ.

What was measured:
[1] = system: Meloidogyne javanica second stage juveniles (J2s); assay: Nematocidal activity: viability of J2 nematodes after 2 days exposure to the compound in a sealed box; format: in vivo; conditions: for nematocidal activity in words: comparison within the series; for Activity: reduction in J2s viability relative to non exposed control J2s (class): at the concentration given, 2 days incubation; for Activity: the most effective concentration: concentration to which the class of the same cell belongs
From the text: In exemplary procedures, the sedentary root-knot nematode from the genus Meloidogyne javanica second stage juveniles (J2s) was propagated on greenhouse-grown nematode-susceptible tomato Lycopersicon esculentum cv. ‘Avigail 870’ (Hazera, Shikmim, Israel), and nematode eggs were bulk-extracted from the roots with 0.05% (v/v) sodium hypochlorite (NaOCl) followed by sucrose flotation and successive sievings through nylon filters of 300, 120, 60, and 30 μm mesh sizes (AD Sinun Technologies, Petach Tikvah, Israel). For hatching J2, extracted eggs were placed on 30-μm sieves (AD Sinun Technologies) in 0.01 M MES (2-(N-morpholino) ethanesulfonic acid hydrate) pH 6.5 buffer under aseptic conditions in darkness for 5 days, and hatching J2s were collected for further experiments.
Seven vials, each containing 300 J2 nematodes with 0.5 mL of 0.01 M 2-(N-morpholino)ethanesulfonic acid (MES) buffer, were exposed to cyclic ketone compounds in order to examine their nematocidal activity and reduction in viability. In addition, a humid environment in a sealed 1 L box was maintained by addition 5 ml of distilled H2O to a 50-mm Petri plate. The box was sealed after compound addition into each 50-mm Petri plate together with 5-250 mg of perlite particles and incubated for 2 days in the dark at 25±1° C. C5 and C6 saturated and α,β-unsaturated cyclic ketones were tested for their nematocidal activity. The J2 nematodes viability was examined following exposure to the cyclic ketone compounds, by a straightforward small-scale nematode extraction method, based on the traditional Baermann funnel method. Briefly, all nematode suspensions were loaded onto 30-μm (AD Sinun Technologies) filters (1.0-1.5 cm height, 1.1-2.0 cm^3 internal area), and the nematodes were washed twice with 300 μL of 0.01 M MES buffer in order to remove any residues. Then, filters holding nematodes were placed into 15 mL Falcon centrifuge tubes, each containing 900 μL of 0.01 M of MES buffer. These filters allow active passage of only living J2s while paralyzed or dead nematodes remain on top of the filter. The whole apparatus including the filter holding the nematodes and the Falcon tubes were placed in the dark for 3 h at 25±1° C. Then, the filters were removed and the viable nematodes, which were able to actively cross the filter toward the 0.01 M of MES buffer, were collected from the Falcon tube and counted using a Nematode Counting Slide (Chalex LLC, Portland, OR, USA) and a SV11 stereomicroscope (Zeiss, Jena, Germany).
Data were analyzed by the JMP 12 software package (SAS Inc., Cary, NC, USA). Mean numbers of viable J2s under various conditions were subjected to one-way analysis of variance (ANOVA), followed by the Tukey-Kramer multiple comparison test, with significance set at P<0.05.

[2] = system: F. oxysporum f. sp. radicis-cucumerium; assay: Fungicidal activity assay on PDA in sealed Petri dish (growth inhibition and mortality); format: cell-based, Fusarium oxysporum f. sp. radicis-cucumerinum; conditions: for MFC: Fusarium oxysporum, read-out: M - Mortality, minimal concentration that killed the fungus
Description: (§1) Each compound was placed on a disconnected cover from an Eppendorf tube that was located in the middle of the Petri dish and a hyphae-containing plug of each test fungus was added to the culture plate. In exemplary procedures, the tested compounds trans-2-heptenal, trans-2-octenal were tested in comparison with octanal, trans-2-octen-1-ol, methyl trans-2-octenoate, trans-3-octen-2-one and 3-pentenenitrile. In addition, cyclic ketones as 2-cyclopenten-1-one, 2-cyclohexen-1-one and α-tetralone were also examined. Then, the culture plate was sealed with parafilm and incubated at room-temperature for 2 days, after which the growth of the test fungi in those dishes was compared with those in the test compound-free control dishes. At the end of the assay, the viability of each test fungus was evaluated by transferring inoculum plugs to fresh PDA plates and observing the growth that developed within the next 2 days. The test fungi used in this study included but were not limited to Alternaria alternata, Botrytis cinerea, Sclerotinia rolfsii, Penicillium digitatum, Fusarium oxysporum f. sp. radicis-cucumerinum and Rhizoctonia solani.

A. alternata = assay: as above; format: cell-based, Alternaria alternata; conditions: for I - Inhibition class: 2 days; for I - Inhibition, minimal concentration that inhibited the growth: concentration to which the class above belongs
Description: as §1, with “In exemplary procedures, the fungicidial activity of the compounds listed in Table 2 were examined by activity assays as follow: Petri dishes, 90 mm in diameter, with air volume of 80 mL, contained 10-12 mL of growth medium comprising potato dextrose agar (PDA) (Acumedia, Lansing, Michigan, USA) amended with tetracycline at 12 μg/mL. Each” for “Each”

S. rolfsii = assay: as above; format: cell-based, Sclerotinia rolfsii; conditions: S. rolfsii; for MFC: Agroathelia rolfsii, read-out: M - Mortality, minimal concentration that killed the fungus; for MFC / M - Mortality, minimal concentration that killed the fungus: NA + number = still viable in the highest concentration tested (given as >); for I - Inhibition class: 2 days; for I - Inhibition, minimal concentration that inhibited the growth: concentration to which the class above belongs
Description: as §1

R. solani = assay: microbe, parasite or virus in culture; format: cell-based; conditions: R. solani; for MFC: Rhizoctonia solani, read-out: M - Mortality, minimal concentration that killed the fungus
Description: as §1

P. digitatum = assay: Fungicidal activity assay on PDA in sealed Petri dish (growth inhibition and mortality); format: cell-based, Penicillium digitatum; conditions: for I - Inhibition class: 2 days; for I - Inhibition, minimal concentration that inhibited the growth: concentration to which the class above belongs
Description: as §1, with “In exemplary procedures, the fungicidial activity of the compounds listed in Table 2 were examined by activity assays as follow: Petri dishes, 90 mm in diameter, with air volume of 80 mL, contained 10-12 mL of growth medium comprising potato dextrose agar (PDA) (Acumedia, Lansing, Michigan, USA) amended with tetracycline at 12 μg/mL. Each” for “Each”

B. cinerea = assay: as above; format: cell-based, Botrytis cinerea; conditions: for I - Inhibition class: 2 days; for I - Inhibition, minimal concentration that inhibited the growth: concentration to which the class above belongs
Description: as §1, with “In exemplary procedures, the fungicidial activity of the compounds listed in Table 2 were examined by activity assays as follow: Petri dishes, 90 mm in diameter, with air volume of 80 mL, contained 10-12 mL of growth medium comprising potato dextrose agar (PDA) (Acumedia, Lansing, Michigan, USA) amended with tetracycline at 12 μg/mL. Each” for “Each”

test fungi = assay: Fungicidal activity assay on PDA, summaries over the test fungi; format: cell-based; conditions: comparison within the series
Description: as §1, with “In exemplary procedures, the fungicidial activity of the compounds listed in Table 2 were examined by activity assays as follow: Petri dishes, 90 mm in diameter, with air volume of 80 mL, contained 10-12 mL of growth medium comprising potato dextrose agar (PDA) (Acumedia, Lansing, Michigan, USA) amended with tetracycline at 12 μg/mL. Each” for “Each”

Tomato plants = assay: Phytotoxicity on tomato plants in soil, compound on perlite particles; format: in vivo; conditions: one day after treatment
From the text: In exemplary procedures, the phytotixicity of trans-2-octenal and 2-cyclopenten-1-one was examined in triplicates for each concentration: 250, 1,000, 4,000, and 20,000 ppm compared to control.

[3] = system: Meloidogyne javanica second stage juveniles (J2s); assay: Nematocidal activity: viability of J2 nematodes after 2 days exposure to the compound in a sealed box; conditions: in vivo
[4] = NA + number = still viable in the highest concentration tested (given as >)
[5] = concentration to which the class above belongs

| Compound | nematocidal activity in words [1] | MFC [2, 4] | MFC (S. rolfsii) | MFC (R. solani; [4]) | fungicidal activity in words (test fungi) | Activity: reduction in J2s viability relative to non exposed control J2s (class) [1] | Activity: the most effective concentration [1] | I - Inhibition class (A. alternata) | M - Mortality, minimal concentration that killed the fungus (A. alternata; [4]) | I - Inhibition, minimal concentration that inhibited the growth (A. alternata) | I - Inhibition class (S. rolfsii) | M - Mortality, minimal concentration that killed the fungus (S. rolfsii) | I - Inhibition, minimal concentration that inhibited the growth (S. rolfsii) | I - Inhibition class (P. digitatum) | M - Mortality, minimal concentration that killed the fungus (P. digitatum; [4]) | I - Inhibition, minimal concentration that inhibited the growth (P. digitatum) | I - Inhibition class (B. cinerea) | M - Mortality, minimal concentration that killed the fungus (B. cinerea; [4]) | I - Inhibition, minimal concentration that inhibited the growth (B. cinerea) | also measured |
| --- | --- | --- | --- | --- | --- | --- | --- | --- | --- | --- | --- | --- | --- | --- | --- | --- | --- | --- | --- | --- |
| O=C1CCCCCC1 [Cycloheptanone] | nematocidal effects at substantially higher concentrations | > 250 µg/mL | 2500 µg/mL | > 250 µg/mL | – | – | – | – | – | – | – | – | – | – | – | – | – | – | – | MFC (A. alternata; Alternaria alternata, NA + number = still viable in the highest concentration tested (given as >), read-out: M - Mortality, minimal concentration that killed the fungus): 1250 µg/mL; MFC (P. digitatum; Penicillium digitatum, NA + number = still viable in the highest concentration tested (given as >), read-out: M - Mortality, minimal concentration that killed the fungus): 2500 µg/mL; MFC (B. cinerea; Botrytis cinerea, NA + number = still viable in the highest concentration tested (given as >), read-out: M - Mortality, minimal concentration that killed the fungus): 1250 µg/mL |
| O=C1C=CCC1 [2-cyclopenten-1-one] | – | > 25 µg/mL | > 25 µg/mL | > 25 µg/mL | fungicidal activity, to some extent | – | – | – | – | – | – | – | – | – | – | – | – | – | – | phytotoxicity (Tomato plants; 250 ppm): No phytotoxicity; phytotoxicity (Tomato plants; 1,000 ppm): phytotoxic; also recorded: Low phytotoxicity; phytotoxicity (Tomato plants; 4,000 ppm): phytotoxic; also recorded: Medium phytotoxicity; phytotoxicity (Tomato plants; 20,000 ppm): phytotoxic; also recorded: Strong phytotoxicity |
| trans-2-heptanol | – | – | – | – | – | L (51-75% reduction in viability) | 500 ppm | SI (Strong inhibition - 100% of growth inhibition compared to control.) | 500 ppm | 125 ppm | SI (Strong inhibition - 100% of growth inhibition compared to control.) | 500 ppm | 125 ppm | SI (Strong inhibition - 100% of growth inhibition compared to control.) | 1250 ppm | 125 ppm | SI (Strong inhibition - 100% of growth inhibition compared to control.) | 500 ppm | 125 ppm | – |
| CC(C)=CCCC(C)=CCCC(C)=CC=O (single isomer, unassigned) [Farnesal mixture of isomers, Farnesal] | – | – | – | – | – | N (<50% reduction in viability) | – | NI (<50% growth inhibition) | > 125 ppm | 125 ppm | MI (Medium inhibition - 76-99% of growth inhibition) | > 125 ppm | 125 ppm | NI (<50% growth inhibition) | > 125 ppm | 125 ppm | MI (Medium inhibition - 76-99% of growth inhibition) | > 125 ppm | 12.5 ppm | Activity: the most effective concentration [3]: N 250 ppm |
| O=C1CCCc2ccccc21 [α-Tetralone] | – | – | – | – | further reduced fungicidal activity | – | 25 ppm | – | – | – | NI (<50% growth inhibition) | > 25 ppm | 25 ppm | – | – | – | – | – | – | I - Inhibition class ([2]; 2 days): NI (<50% growth inhibition); M - Mortality, minimal concentration that killed the fungus [2, 4]: > 25 ppm; I - Inhibition, minimal concentration that inhibited the growth [2, 5]: 25 ppm; I - Inhibition class (R. solani; 2 days): NI (<50% growth inhibition); M - Mortality, minimal concentration that killed the fungus (R. solani; [4]): > 25 ppm; I - Inhibition, minimal concentration that inhibited the growth (R. solani; [5]): 25 ppm |
| O=C1CCCCC1 [Cyclohexanone] | nematocidal effects at substantially higher concentrations | > 250 µg/mL | 500 µg/mL | > 250 µg/mL | – | – | – | – | – | – | – | – | – | – | – | – | – | – | – | – |
